In brackets after ≈: the same amount, converted by molar mass. Activity calls are given as the source filed them. The rule behind the calls is not given here.
Experiments:
[1] = tested on: Enterococcus faecium; assay: Antimicrobial activity against Enterococcus faecium D344S by agar dilution method after 48 hrs; assay type: functional
[2] = tested on: Enterococcus faecium; assay: Antimicrobial activity against Enterococcus faecium M512 by agar dilution method after 48 hrs; assay type: functional; settings: M512, 48 h
[3] = Inhibition of Enterococcus faecium LD-transpeptidase assessed by formation of Ac2-L-Lys-D-[14C]Ala from Ac2-L-Lys-D-Ala and D-[14C]Ala
[4] = tested on: Enterococcus faecium; assay: Inhibition of Enterococcus faecium M512 PBP5fm transpeptidase activity assessed as lactoyl tripeptide level; parameters: scale not given: the % may be the effect or the level left
[5] = tested on: Enterococcus faecium; assay: Inhibition of Enterococcus faecium M512 PBP5fm transpeptidase activity assessed as lactoyl tetra-peptide level; parameters: scale not given: the % may be the effect or the level left
[6] = tested on: Enterococcus faecium; assay: Inhibition of Enterococcus faecium M512 PBP5fm transpeptidase activity assessed as lactoyl tri-aspartate-peptide level; parameters: scale not given: the % may be the effect or the level left
[7] = tested on: Enterococcus faecium; assay: Inhibition of Enterococcus faecium M512 PBP5fm transpeptidase activity assessed as lactoyl penta-peptide level; parameters: scale not given: the % may be the effect or the level left
[8] = tested on: Enterococcus faecium; assay: Inhibition of Enterococcus faecium M512 PBP5fm transpeptidase activity assessed as lactoyl tetra-aspartate-peptide level; parameters: scale not given: the % may be the effect or the level left
[9] = tested on: Enterococcus faecium; assay: Inhibition of Enterococcus faecium M512 PBP5fm transpeptidase activity assessed as lactoyl penta-aspartate-peptide level; parameters: scale not given: the % may be the effect or the level left
[10] = tested on: Enterococcus faecium; assay: Inhibition of Enterococcus faecium M512 […] transpeptidase activity assessed as tetra-aspartate-tri multimer containing D-Ala4 to D-Asp-L-Lys3 cross links at 128 ug/ml by mass spectrometry; parameters: scale not given: the % may be the effect or the level left
[11] = tested on: Enterococcus faecium; assay: Inhibition of Enterococcus faecium M512 PBP5fm transpeptidase activity assessed as tetra-aspartate-tri-aspartate multimer containing D-Ala4 to D-Asp-L-Lys3 cross links at 128 ug/ml by mass spectrometry; parameters: scale not given: the % may be the effect or the level left
[12] = tested on: Enterococcus faecium; assay: Inhibition of Enterococcus faecium M512 PBP5fm transpeptidase activity assessed as tetra -aspartate-tetra multimer containing D-Ala4 to D-Asp-L-Lys3 cross links at 128 ug/ml by mass spectrometry; parameters: scale not given: the % may be the effect or the level left
[13] = tested on: Enterococcus faecium; assay: Inhibition of Enterococcus faecium M512 PBP5fm transpeptidase activity assessed as tetra -aspartate-penta multimer containing D-Ala4 to D-Asp-L-Lys3 cross links at 128 ug/ml by mass spectrometry; parameters: scale not given: the % may be the effect or the level left
[14] = tested on: Enterococcus faecium; assay: Inhibition of Enterococcus faecium M512 PBP5fm transpeptidase activity assessed as tetra -aspartate-tetra-aspartate multimer containing D-Ala4 to D-Asp-L-Lys3 cross links at 128 ug/ml by mass spectrometry; parameters: scale not given: the % may be the effect or the level left
[15] = tested on: Enterococcus faecium; assay: Inhibition of Enterococcus faecium M512 PBP5fm transpeptidase activity assessed as tetra -aspartate-penta-aspartate multimer containing D-Ala4 to D-Asp-L-Lys3 cross links at 128 ug/ml by mass spectrometry; parameters: scale not given: the % may be the effect or the level left
[16] = tested on: Enterococcus faecium; assay: Inhibition of Enterococcus faecium M512 PBP5fm transpeptidase activity assessed as tetra -aspartate-tetra -aspartate-tri-aspartate multimer containing D-Ala4 to D-Asp-L-Lys3 cross links at 128 ug/ml by mass spectrometry; parameters: scale not given: the % may be the effect or the level left
[17] = tested on: Enterococcus faecium; assay: Inhibition of Enterococcus faecium M512 PBP5fm transpeptidase activity assessed as tetra-aspartate-tetra-aspartate-tetra-aspartate multimer containing D-Ala4 to D-Asp-L-Lys3 cross links at 128 ug/ml by mass spectrometry; parameters: scale not given: the % may be the effect or the level left
[18] = tested on: Enterococcus faecium; assay: Inhibition of Enterococcus faecium M512 PBP5fm transpeptidase activity assessed as tetra-aspartate-tetra-aspartate-penta-aspartate multimer containing D-Ala4 to D-Asp-L-Lys3 cross links at 128 ug/ml by mass spectrometry; parameters: scale not given: the % may be the effect or the level left
[19] = tested on: Enterococcus faecium; assay: Inhibition of Enterococcus faecium LD transpeptidase assessed as enzyme aduct at 3.4 uM by mass spectrometry
[20] = tested on: Enterococcus faecium; assay: Inhibition of Enterococcus faecium LD-transpeptidase assessed by formation of Ac2-L-Lys-D-[14C]Ala from Ac2-L-Lys-D-Ala and D-[14C]Ala at 0.5 ug/ml
[21] = tested on: Enterococcus faecium; assay: Inhibition of Enterococcus faecium M512 LDtfm transpeptidase activity assessed as tri-aspartate tri multimer containing L-Lys3 to D-Asp-L-Lys3 cross links at 8 ug/ml; parameters: scale not given: the % may be the effect or the level left
[22] = tested on: Enterococcus faecium; assay: Inhibition of Enterococcus faecium M512 LDtfm transpeptidase activity assessed as tri-aspartate-tri-aspartate multimer containing L-Lys3 to D-Asp-L-Lys3 cross links at 8 ug/ml; parameters: scale not given: the % may be the effect or the level left
[23] = tested on: Enterococcus faecium; assay: Inhibition of Enterococcus faecium M512 LDtfm transpeptidase activity assessed as tri-aspartate-tetra multimer containing L-Lys3 to D-Asp-L-Lys3 cross links at 8 ug/ml; parameters: scale not given: the % may be the effect or the level left
[24] = tested on: Enterococcus faecium; assay: Inhibition of Enterococcus faecium M512 LDtfm transpeptidase activity assessed as tri-aspartate-tetra-aspartate multimer containing L-Lys3 to D-Asp-L-Lys3 cross links at 8 ug/ml; parameters: scale not given: the % may be the effect or the level left
[25] = tested on: Enterococcus faecium; assay: Inhibition of Enterococcus faecium M512 LDtfm transpeptidase activity assessed as tri-aspartate-penta multimer containing L-Lys3 to D-Asp-L-Lys3 cross links at 8 ug/ml; parameters: scale not given: the % may be the effect or the level left
[26] = tested on: Enterococcus faecium; assay: Inhibition of Enterococcus faecium M512 LDtfm transpeptidase activity assessed as tri-aspartate-penta-aspartate multimer containing L-Lys3 to D-Asp-L-Lys3 cross links at 8 ug/ml; parameters: scale not given: the % may be the effect or the level left
[27] = tested on: Enterococcus faecium; assay: Inhibition of Enterococcus faecium M512 LDtfm transpeptidase activity assessed as tri-aspartate-tri-aspartate-tri-aspartate multimer containing L-Lys3 to D-Asp-L-Lys3 cross links at 8 ug/ml; parameters: scale not given: the % may be the effect or the level left
[28] = tested on: Enterococcus faecium; assay: Inhibition of Enterococcus faecium M512 LDtfm transpeptidase activity assessed as tri-aspartate-tri-aspartate-tetra multimer containing L-Lys3 to D-Asp-L-Lys3 cross links at 8 ug/ml; parameters: scale not given: the % may be the effect or the level left
[29] = tested on: Enterococcus faecium; assay: Inhibition of Enterococcus faecium M512 LDtfm transpeptidase activity assessed as tri-aspartate-tri-aspartate-tetra-aspartate multimer containing L-Lys3 to D-Asp-L-Lys3 cross links at 8 ug/ml; parameters: scale not given: the % may be the effect or the level left
[30] = tested on: Enterococcus faecium; assay: Inhibition of Enterococcus faecium M512 LDtfm transpeptidase activity assessed as tri-aspartate-tri-aspartate-penta-aspartate multimer containing L-Lys3 to D-Asp-L-Lys3 cross links at 8 ug/ml; parameters: scale not given: the % may be the effect or the level left

| Compound | MIC [1] [µg/mL] | MIC [2] [µg/mL] | EC50 [3] [µg/mL] | Activity [4] [%] | Activity [5] [%] | Activity [6] [%] | Activity [7] [%] | Activity [8] [%] | Activity [9] [%] | Activity [20] | other results |
| --- | --- | --- | --- | --- | --- | --- | --- | --- | --- | --- | --- |
| CC(O)[C@H]1C(=O)N2C(C(=O)O)=C(SCCNC=N)C[C@H]12 (single isomer, unassigned) [IMIPENEM ANHYDROUS] | 0.25 (≈ 0.835 µM) | 0.5 (≈ 1.67 µM) | 0.077 (≈ 0.257 µM) | 1.4 | 2.2 | 4.5 | 2.8 | 3 | 5.4 | Active | Activity [10]: 0.9%; Activity [11]: 23.8%; Activity [12]: 1.7%; Activity [13]: 0.8%; Activity [14]: 12%; Activity [15]: 11.9%; Activity [16]: 24.7%; Activity [17]: 1.6%; Activity [18]: 3.3%; Activity [19]: Active |
| CC(O)[C@H]1C(=O)N2C(C(=O)O)=C(S[C@@H]3CN[C@H](C(=O)N(C)C)C3)[C@H](C)[C@H]12 (single isomer, unassigned) [MEROPENEM] | 1 (≈ 2.61 µM) | 8 (≈ 20.9 µM) |  |  |  |  |  |  |  |  |  |
| CC1(C)S[C@@H]2[C@H](NC(=O)[C@H](N)c3ccccc3)C(=O)N2[C@H]1C(=O)O [AMPICILLIN] | 0.06 (≈ 0.172 µM) | > 2000 | > 3200 | 7 | 0.5 | 18.4 | 1.3 | 10.6 | 3.7 |  | Activity [21]: 2.8%; Activity [22]: 18.7%; Activity [23]: 3.7%; Activity [24]: 6.8%; Activity [25]: 6.8%; Activity [26]: 6.1%; Activity [27]: 6.1%; Activity [28]: 3%; Activity [29]: 2.7%; Activity [30]: 1.8% |
| CO/N=C(\C(=O)N[C@@H]1C(=O)N2C(C(=O)O)=C(CSc3nc(=O)c(O)nn3C)CS[C@H]12)c1csc(N)n1 [CEFTRIAXONE] | 2 (≈ 3.61 µM) | 128 (≈ 231 µM) | 19 (≈ 34.3 µM) |  |  |  |  |  |  | 200 µg/mL |  |
| CC1C(S[C@@H]2CN[C@H](C(=O)Nc3cccc(C(=O)O)c3)C2)=C(C(=O)O)N2C(=O)[C@H]([C@H](C)O)[C@@H]12 (some centres not stated) [ETRAPENEM] | 1 (≈ 2.1 µM) | 16 (≈ 33.6 µM) |  |  |  |  |  |  |  |  |  |

Source: ChEMBL document CHEMBL1156491, “Unexpected inhibition of peptidoglycan LD-transpeptidase from Enterococcus faecium by the beta-lactam imipenem” (J Biol Chem, 2007)
